Test results as given in ChEMBL document CHEMBL1201862, “PubChem BioAssay data set” (2004).
Active and inactive are the calls of the source.

Experiments:
Protein RecA = target: T1, Protein RecA (Mycobacterium tuberculosis, UniProt P9WHJ3); test: Fluorescence Cell-Free Homogeneous Dose Retest to Identify Inhibitors of RecA-Intein Splicing Activity. [Related pubchem assays (depositor defined):AID2097, AID2223, AID489010, AID492950]; type: functional
T1 sequence (P9WHJ3 whole entry): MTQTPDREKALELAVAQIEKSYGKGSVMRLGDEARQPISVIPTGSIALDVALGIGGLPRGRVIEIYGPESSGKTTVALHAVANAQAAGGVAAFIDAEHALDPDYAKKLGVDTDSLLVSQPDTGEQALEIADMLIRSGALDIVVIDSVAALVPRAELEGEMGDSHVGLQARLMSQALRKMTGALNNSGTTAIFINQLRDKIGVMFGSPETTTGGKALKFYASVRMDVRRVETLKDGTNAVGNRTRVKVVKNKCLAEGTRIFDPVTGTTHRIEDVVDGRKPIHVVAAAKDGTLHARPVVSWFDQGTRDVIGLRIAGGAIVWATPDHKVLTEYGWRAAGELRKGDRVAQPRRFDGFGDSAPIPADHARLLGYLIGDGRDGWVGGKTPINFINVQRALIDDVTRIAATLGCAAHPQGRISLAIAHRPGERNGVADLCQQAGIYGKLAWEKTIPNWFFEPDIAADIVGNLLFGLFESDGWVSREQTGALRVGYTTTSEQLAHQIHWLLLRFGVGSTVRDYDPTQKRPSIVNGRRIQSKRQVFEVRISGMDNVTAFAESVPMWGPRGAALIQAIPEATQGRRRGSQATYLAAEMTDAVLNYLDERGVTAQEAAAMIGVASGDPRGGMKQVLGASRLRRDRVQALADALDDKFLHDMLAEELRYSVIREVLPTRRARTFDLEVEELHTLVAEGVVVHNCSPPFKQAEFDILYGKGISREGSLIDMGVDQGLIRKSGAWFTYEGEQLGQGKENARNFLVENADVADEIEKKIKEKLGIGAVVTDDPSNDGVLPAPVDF

[1] = target: T2, Replicative DNA helicase DnaB (Mycobacterium tuberculosis, UniProt P9WMR3); test: DnaB intein splicing inhibitors, dose response, biochemical, cell-free fluorescence (AID 449749); type: functional
T2 sequence (P9WMR3 whole entry): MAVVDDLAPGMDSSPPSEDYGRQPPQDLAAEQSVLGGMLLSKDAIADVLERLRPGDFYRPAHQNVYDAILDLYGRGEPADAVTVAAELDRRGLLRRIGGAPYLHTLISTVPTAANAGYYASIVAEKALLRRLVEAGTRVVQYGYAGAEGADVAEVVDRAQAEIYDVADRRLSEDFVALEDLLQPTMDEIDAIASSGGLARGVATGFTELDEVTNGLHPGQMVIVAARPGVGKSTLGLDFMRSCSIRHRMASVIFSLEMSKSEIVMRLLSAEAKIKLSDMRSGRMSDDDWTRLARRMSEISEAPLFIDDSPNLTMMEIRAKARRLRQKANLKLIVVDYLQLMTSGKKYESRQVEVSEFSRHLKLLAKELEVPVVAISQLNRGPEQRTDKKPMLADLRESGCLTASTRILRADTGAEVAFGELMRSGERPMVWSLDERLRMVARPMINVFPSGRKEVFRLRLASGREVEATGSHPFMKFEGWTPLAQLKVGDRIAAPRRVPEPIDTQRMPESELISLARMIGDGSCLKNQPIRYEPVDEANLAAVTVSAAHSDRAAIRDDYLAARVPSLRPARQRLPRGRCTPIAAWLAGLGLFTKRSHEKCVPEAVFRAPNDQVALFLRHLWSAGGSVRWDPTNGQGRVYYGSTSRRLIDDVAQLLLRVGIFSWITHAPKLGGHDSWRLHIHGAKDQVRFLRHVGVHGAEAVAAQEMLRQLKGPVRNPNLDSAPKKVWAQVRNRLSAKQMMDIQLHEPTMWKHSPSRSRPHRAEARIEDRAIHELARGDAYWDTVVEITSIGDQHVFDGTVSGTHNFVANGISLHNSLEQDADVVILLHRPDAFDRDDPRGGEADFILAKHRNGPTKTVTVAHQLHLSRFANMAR

[2] = Trypanosoma cruzi growth suppression in host cells – NIH3T3 host cells, beta-gal luminescence, confirmation (AID 2044); type: functional, cell-based;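 further: intracellular parasites grown in NIH/3T3 mouse fibroblasts as host cells; luminescent beta-galactosidase reporter signal from transgenic T. cruzi replicating inside host cells; inhibitors lower the luminescence signal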
[3] = NIH3T3 cell viability loss – ATP luminescence, mouse fibroblasts, counter-screen, dose response (AID 2010); type: functional, cell-based;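 further: cells exposed to compound for about 90 hours before reading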
[4] = target: T3, DNA repair protein RAD52 homolog (Homo sapiens, UniProt P43351); type: functional, biochemical
T3 sequence (P43351 whole entry): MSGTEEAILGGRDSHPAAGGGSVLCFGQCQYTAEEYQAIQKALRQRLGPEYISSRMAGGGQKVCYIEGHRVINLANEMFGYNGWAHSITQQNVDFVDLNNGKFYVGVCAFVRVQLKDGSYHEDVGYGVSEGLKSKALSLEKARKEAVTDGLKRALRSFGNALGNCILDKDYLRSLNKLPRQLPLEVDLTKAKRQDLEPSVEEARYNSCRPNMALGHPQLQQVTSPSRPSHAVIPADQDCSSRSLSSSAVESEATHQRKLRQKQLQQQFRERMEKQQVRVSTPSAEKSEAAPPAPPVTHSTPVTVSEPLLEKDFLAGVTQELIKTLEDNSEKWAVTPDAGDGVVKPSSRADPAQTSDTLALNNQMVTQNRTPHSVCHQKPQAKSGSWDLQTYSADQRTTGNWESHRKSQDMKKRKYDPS

Fatty acid synthase [5] = target: T4, Fatty acid synthase (Homo sapiens, UniProt P49327); test: inhibition of human FAS-TE enzyme activity – biochemical, kinetic fluorescence intensity, dose response (AID 624326); type: functional;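 further: rate of fluorescence rise from hydrolysis of a fluorogenic O-methyl fluorescein ester substrate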
Fatty acid synthase [6] = target: T4, Fatty acid synthase; test: inhibition of human FAS-TE enzyme activity – biochemical, endpoint fluorescence intensity, uHTS hits, dose response (AID 624327); type: functional;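 further: fluorescence from hydrolysis of an O-methyl fluorescein acyl ester substrate by the enzyme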
[7] = target: FAD-linked sulfhydryl oxidase ALR (Homo sapiens, UniProt P55789); test: ALR-catalysed DTT oxidation blockers – biochemical, H2O2 detection, luminescence, cherry-pick, dose response (AID 493248)
[8] = target: T5, Short transient receptor potential channel 4 (Mus musculus, UniProt Q9QUQ5); test: calcium entry via TRPC4 opening agents – cell-based, HEK293 TRPC4/mu-opioid, Fluo-4 calcium, dose response (AID 434937); type: functional
T5 sequence (Q9QUQ5 whole entry): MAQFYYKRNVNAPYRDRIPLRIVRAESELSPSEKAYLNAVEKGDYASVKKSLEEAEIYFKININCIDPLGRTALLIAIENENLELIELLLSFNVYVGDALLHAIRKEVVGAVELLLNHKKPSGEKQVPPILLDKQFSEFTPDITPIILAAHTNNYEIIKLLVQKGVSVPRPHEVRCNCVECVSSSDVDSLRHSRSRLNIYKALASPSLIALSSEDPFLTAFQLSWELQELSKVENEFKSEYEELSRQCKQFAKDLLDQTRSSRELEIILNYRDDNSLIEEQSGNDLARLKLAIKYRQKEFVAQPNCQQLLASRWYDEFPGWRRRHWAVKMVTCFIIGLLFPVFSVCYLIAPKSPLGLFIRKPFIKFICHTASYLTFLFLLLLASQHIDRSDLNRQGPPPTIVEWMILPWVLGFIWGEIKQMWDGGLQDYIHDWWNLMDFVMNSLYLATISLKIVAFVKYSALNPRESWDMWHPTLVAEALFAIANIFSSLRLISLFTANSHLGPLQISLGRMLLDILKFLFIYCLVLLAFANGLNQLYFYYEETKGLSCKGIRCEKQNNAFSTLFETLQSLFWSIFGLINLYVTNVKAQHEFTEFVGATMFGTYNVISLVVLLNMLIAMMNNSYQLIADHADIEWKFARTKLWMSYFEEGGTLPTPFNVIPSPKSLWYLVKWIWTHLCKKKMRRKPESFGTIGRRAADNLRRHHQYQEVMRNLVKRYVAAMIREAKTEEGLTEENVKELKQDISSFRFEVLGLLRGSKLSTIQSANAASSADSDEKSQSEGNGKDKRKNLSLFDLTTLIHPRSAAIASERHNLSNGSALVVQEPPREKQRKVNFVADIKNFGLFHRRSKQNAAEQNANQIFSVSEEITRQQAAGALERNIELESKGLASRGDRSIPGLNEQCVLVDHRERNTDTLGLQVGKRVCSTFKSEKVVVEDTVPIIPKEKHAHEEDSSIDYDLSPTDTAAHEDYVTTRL

Streptococcus = test: GAS UMAA2166 growth inhibition – luminescence, BacTiterGlo, counter-screen for streptokinase expression inhibitor project, dose response (AID 1915); type: functional, organism-based;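 further: potency for reduction of bacterial viability or growth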
[9] = tested on: Streptococcus sp. 'group A'; test: Streptococcus pyogenes SK(-)GAS viability under kanamycin – luminescence, BacTiterGlo, confirmation, counter-screen for streptokinase expression inhibitor project, dose response (AID 1900); type: functional, organism-based
Cytochrome P450 2C9 = Cytochrome P450 2C9 (Homo sapiens, UniProt P11712)
Sequence of Cytochrome P450 2C9 (P11712 whole entry): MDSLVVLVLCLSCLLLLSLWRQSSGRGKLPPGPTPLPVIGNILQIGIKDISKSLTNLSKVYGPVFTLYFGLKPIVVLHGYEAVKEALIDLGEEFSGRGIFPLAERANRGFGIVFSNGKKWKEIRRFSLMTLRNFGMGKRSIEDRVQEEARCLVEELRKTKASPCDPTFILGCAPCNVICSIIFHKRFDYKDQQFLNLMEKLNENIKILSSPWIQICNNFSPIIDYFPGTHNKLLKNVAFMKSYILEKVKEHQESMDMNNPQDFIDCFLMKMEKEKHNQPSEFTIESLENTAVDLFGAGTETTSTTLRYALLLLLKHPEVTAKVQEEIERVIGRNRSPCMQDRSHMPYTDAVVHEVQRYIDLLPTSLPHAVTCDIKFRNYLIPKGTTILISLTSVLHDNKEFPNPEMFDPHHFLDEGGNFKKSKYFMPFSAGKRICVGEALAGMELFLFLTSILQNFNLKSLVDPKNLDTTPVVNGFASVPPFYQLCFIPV

T4 sequence (P49327 whole entry): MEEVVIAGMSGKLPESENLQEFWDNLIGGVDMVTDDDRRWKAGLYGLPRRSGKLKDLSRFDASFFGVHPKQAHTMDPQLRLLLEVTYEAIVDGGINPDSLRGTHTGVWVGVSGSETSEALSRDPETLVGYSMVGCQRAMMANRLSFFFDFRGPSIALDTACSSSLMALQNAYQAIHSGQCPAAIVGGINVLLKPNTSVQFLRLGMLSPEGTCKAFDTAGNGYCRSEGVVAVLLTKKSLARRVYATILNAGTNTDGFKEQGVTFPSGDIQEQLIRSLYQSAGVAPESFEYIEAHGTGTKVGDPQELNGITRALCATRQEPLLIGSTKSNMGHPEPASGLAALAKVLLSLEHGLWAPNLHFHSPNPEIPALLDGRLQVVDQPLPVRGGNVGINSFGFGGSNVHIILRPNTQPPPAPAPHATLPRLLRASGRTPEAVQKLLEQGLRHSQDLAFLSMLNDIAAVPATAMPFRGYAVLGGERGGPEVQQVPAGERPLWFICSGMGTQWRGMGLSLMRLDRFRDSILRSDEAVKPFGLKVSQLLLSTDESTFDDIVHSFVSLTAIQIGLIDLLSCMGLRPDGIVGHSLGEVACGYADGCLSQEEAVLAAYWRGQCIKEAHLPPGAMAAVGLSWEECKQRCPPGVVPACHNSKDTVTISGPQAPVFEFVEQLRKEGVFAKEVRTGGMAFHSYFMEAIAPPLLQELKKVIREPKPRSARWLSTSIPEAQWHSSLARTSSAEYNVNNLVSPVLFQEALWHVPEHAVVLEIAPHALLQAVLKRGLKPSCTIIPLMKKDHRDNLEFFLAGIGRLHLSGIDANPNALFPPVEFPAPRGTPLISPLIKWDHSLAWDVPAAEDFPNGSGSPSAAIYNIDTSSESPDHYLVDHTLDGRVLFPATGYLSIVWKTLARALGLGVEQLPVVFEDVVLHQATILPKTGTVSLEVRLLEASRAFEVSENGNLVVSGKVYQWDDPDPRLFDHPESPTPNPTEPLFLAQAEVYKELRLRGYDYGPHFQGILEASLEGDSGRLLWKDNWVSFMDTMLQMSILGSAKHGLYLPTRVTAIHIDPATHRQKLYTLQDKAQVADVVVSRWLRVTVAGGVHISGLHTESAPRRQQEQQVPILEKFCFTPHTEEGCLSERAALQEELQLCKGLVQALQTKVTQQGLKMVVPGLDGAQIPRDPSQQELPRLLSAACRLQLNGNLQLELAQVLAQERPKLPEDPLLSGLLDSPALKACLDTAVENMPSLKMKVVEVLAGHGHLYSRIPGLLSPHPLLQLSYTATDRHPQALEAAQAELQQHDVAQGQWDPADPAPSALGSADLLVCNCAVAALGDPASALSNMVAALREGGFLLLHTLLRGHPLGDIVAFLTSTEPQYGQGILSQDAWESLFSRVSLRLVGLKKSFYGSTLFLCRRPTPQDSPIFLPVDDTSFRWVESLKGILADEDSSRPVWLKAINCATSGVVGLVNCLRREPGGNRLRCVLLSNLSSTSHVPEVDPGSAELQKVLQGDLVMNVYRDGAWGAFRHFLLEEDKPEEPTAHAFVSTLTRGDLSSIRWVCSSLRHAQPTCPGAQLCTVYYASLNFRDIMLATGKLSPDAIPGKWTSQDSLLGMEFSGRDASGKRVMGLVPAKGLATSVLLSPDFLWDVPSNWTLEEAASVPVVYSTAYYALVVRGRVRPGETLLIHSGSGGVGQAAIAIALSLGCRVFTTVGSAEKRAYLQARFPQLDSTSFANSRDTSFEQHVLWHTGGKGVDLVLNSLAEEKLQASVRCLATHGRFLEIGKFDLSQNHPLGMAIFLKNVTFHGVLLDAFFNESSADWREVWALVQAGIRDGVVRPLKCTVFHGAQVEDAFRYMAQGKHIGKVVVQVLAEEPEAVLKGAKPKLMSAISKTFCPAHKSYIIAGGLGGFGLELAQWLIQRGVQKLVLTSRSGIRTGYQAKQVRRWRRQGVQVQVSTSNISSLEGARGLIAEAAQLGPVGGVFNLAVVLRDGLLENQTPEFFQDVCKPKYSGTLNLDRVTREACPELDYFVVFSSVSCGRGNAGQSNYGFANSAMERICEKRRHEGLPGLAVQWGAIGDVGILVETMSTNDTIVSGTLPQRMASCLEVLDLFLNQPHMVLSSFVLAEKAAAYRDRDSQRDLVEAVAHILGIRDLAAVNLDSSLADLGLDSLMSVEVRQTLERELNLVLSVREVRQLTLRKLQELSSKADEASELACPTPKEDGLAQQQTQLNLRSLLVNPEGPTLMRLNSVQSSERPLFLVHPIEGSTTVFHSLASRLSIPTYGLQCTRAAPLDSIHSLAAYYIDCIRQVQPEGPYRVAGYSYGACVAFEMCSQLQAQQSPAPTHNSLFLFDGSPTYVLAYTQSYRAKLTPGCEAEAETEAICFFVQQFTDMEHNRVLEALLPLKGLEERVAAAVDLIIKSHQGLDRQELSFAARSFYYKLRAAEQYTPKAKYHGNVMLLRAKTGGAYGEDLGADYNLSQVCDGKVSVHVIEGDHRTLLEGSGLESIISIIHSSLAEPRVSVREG
Sequence of FAD-linked sulfhydryl oxidase ALR (P55789 whole entry): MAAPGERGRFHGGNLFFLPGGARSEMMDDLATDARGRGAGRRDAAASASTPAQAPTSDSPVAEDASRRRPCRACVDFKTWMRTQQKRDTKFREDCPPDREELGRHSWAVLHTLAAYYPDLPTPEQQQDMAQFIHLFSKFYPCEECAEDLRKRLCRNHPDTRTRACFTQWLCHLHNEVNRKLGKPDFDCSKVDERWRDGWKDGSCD

SMILES | EC50 (Protein RecA) | AC50 [1] | IC50 (Fatty acid synthase [5]) | IC50 (Fatty acid synthase [6]) | further results
CCCCCCOC(=O)c1ccccc1NC(=O)/C=C/C(=O)O | 3.41 µM (active) | > 380 µM (inactive) |  |  | 
CN1CCN(CCCNC(=O)c2ccc(/C=C3/Sc4ccccc4N(Cc4cccc(Cl)c4)C3=O)cc2)CC1 |  |  |  |  | EC50 [2]: 0.11 µM (active); EC50 [3]: 5.71 µM (active); AC50 [4]: 14 µM (active)
CC(C)(C)C(=O)Nc1nc(C2CCCN2S(=O)(=O)c2ccc(Cl)cc2)cs1 (stereo not drawn) |  |  | 8.77 µM (active) | 9.08 µM (active) | 
CCN1CCN(Cc2cc(Br)cc(Br)c2O)CC1 |  |  |  |  | AC50 [7]: 11.2 µM (active); EC50 [8]: 0.0667 µM (active)
O=C(COC(=O)c1cc([N+](=O)[O-])ccc1N1CCOCC1)NCc1ccc(Cl)cc1Cl |  |  | 1.05 µM (active) | 0.912 µM (active) | 
CC1=NNC(=O)C1C(c1ccc(Cl)cc1)C(C#N)C#N (stereo not drawn) | 3.26 µM (active) | 7.84 µM (active) |  |  | 
CCn1c(=O)c(C(=O)NNC(=O)c2ccccc2F)c(O)c2ccccc21 |  |  |  |  | EC50 [8]: 6.68 µM (active); EC50 (Streptococcus): 11.5 µM (active); EC50 [9]: 4.54 µM (active)
O=C(NNS(=O)(=O)c1ccc([N+](=O)[O-])cc1)c1cnn(-c2ccccc2)c1-n1cccc1 |  |  | 4.35 µM (active) | 4.5 µM (active) | 
Cc1ccc(Sc2c([N+](=O)[O-])ncn2C)cc1 | 34.6 µM (active) | 112 µM (active) |  |  | AC50 [7]: 0.27 µM (active); AC50 (Cytochrome P450 2C9): 1.58 µM (inconclusive)
CN1CCN(CC(O)COc2ccc(C34CC5CC(CC(C5)C3)C4)cc2)CC1 (stereo not drawn) |  |  |  |  | AC50 [4]: 10.5 µM (active)
